Results: patent US7557085B2, “Metabolic-based methods for modulating gene expression” (Wisconsin Alumni Research Foundation, priority 2005, dated 2009)
Read-outs that look alike come from different tables or passages of the source.

Assays:
[1] = test system: NRSF mediated repression; assay: gal4-NRSF luciferase reporter (G5-TATA-Luc) in JTC-19 cells; format: cell-based, rat
[2] = target: T1, CtBP2 binding to NRSF (Homo sapiens, UniProt P56545); assay: binding of recombinant 6x-HIS-CtBP2 to immunopurified MYC-tagged NRSF with NADH; conditions: recombinant CtBP2 pre-incubated with NADH
T1 construct: made in house
Experimental: Immunoprecipitation experiments were performed to examine CtBP2/NRSF binding and the effect of increasing NADH concentration on such binding. In these experiments, soluble recombinant 6×-HIS-tagged CtBP2 (produced using the Qiagen Expression System, Qiagen, Valencia, Calif., according to the manufacturer's instructions) was pre-incubated with indicated concentrations of NADH and then added to immunopurified, antibody and bead bound MYC-tagged NRSF protein (Roopra et al., 2000, Id.) while maintaining the appropriate NADH concentration. The resulting complexes were harvested, washed and subjected to Western blot analysis with an antibody to the 6×-HIS tag on CtBP2 (Qiagen). CtBP2 binding to NRSF is abrogated in the presence of NADH, showing that the NRSF-CtBP2 interaction is sensitive to NADH concentration.

[3] = target: T2, CtBP2 binding to NRSF (Mus musculus, UniProt P56546); assay: immunoprecipitation of MYC-NRSF with KT3-CtBP2 from HEK cells at NADH concentrations
T2 construct: expressed in transfected cells; host or cells: HEK-293 cells
T2 sequence (P56546 whole entry): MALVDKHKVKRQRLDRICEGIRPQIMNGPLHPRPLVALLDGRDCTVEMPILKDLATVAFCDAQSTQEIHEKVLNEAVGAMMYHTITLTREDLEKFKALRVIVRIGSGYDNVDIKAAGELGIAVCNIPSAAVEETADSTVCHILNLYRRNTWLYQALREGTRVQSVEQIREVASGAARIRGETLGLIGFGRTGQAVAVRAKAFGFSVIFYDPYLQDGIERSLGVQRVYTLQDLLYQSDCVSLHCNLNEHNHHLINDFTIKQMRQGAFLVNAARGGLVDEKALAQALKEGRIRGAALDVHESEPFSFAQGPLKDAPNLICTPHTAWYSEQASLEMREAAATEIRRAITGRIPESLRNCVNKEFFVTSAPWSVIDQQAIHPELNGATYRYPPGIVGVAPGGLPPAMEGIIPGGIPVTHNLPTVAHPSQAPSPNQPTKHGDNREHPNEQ
Experimental: Protein was harvested, incubated with the indicated concentrations of NADH and immunoprecipitated with anti-KT3 antibody or anti-Jun antibody as sham. Immune complexes were subjected to Western blot analysis with anti-MYC antibody.
As NADH concentrations regulate CtBP2 binding to a number of transcription factors (see Zhang et al., 2002, Id.; Mirnezami et al., 2003, Id.; Kim et al., 2005, Nat Struct Mol Biol 12: 423-8) and the non-NADH binding G189A CtBP mutant abolishes metabolic sensitivity of NRSF function, CtBP2 binding to NRSF was tested as a function of NADH concentration. In these experiments, HEK cells were co-transfected with plasmids expressing MYC-tagged NRSF or KT3-tagged CtBP2 as described above. Protein was harvested, incubated with NADH at concentrations from 0-1000 nM and immunoprecipitated with anti-KT3 antibody or anti-Jun antibody as sham. Immune complexes were subjected to Western blot analysis using an anti-MYC antibody conjugated with horseradish peroxidase as described above and in Roopra et al. (2004, Id.). […] Half maximal binding occurred at a physiologically relevant concentrations of ˜70 nM (data not shown).

Structure (SMILES): [Cl-].[Cl-].[Co+2] [CoCl2, reference compound]
- repression of luciferase reporter gene expression by NRSF (fold repression gal4 DBD/gal4-NRSF) [1]: decreased repression

Structure (SMILES): NC(=O)C1=CN([C@@H]2O[C@H](COP(=O)(O)OP(=O)(O)OC[C@H]3O[C@@H](n4cnc5c(N)ncnc54)[C@H](O)[C@@H]3O)[C@@H](O)[C@H]2O)C=CC1 [NADH]
- CtBP2 binding to NRSF [2]: abrogated
- IC50 ([3]; HEK cell protein incubated with NADH 0-1000 nM, data not shown, read-out: NADH concentration of half maximal binding of CtBP to NRSF): ~70 nM
- effect on binding of CtBP to NRSF ([3]; increasing concentrations of NADH, 0-1000 nM, dose dependent): disrupted binding

Structure (SMILES): O=C(O)CC(O)(CC(=O)O)C(=O)O [citrate, reference compound]
- repression of luciferase reporter gene expression by NRSF (fold repression gal4 DBD/gal4-NRSF) ([1]; JTC-19 cells, 16 hrs): increased repression
